Values of other authors, collected in patent publication US10564084B2, “Rapid characterization of the solubility of amphiphiles” (The Trustees of Princeton University, priority 2013, dated 2020).

Conditions: in water; used to rescale the concentration c

In the case of `CCCCCCCCCCCCCCCC[N+](C)(C)C.[Cl-]` [C16TAC, hexadecyl trimethylammonium chloride], the “critical micellar concentration cmc” value is given as 1.6 mM.
